Experimental data reported in patent publication US20060063782A1, “3-Hetero arylmethoxy ! pyridines and their analogues as p38 map kinase inhibitors” (priority 2002, published 2006).

Molecular target: p38 MAP kinase (Homo sapiens, UniProt Q16539)
Assay: p38 MAP Kinase Assay (33P incorporation into myelin basic protein, filter plate)
Format: biochemical
Conditions: Table 1; MKK6-activated p38, MBP substrate, 50 minutes
Procedure: The activated p38 is then diluted 1:6 with assay buffer, and 20 μl mixed with 25 μl of MBP mix (300 μl 10×strength assay buffer, 300 μl of 10 mM DTT & 10 mM sodium orthovanadate, 1.7 ml H2O, 50 μCi γ^33P-ATP, 200 μl of myelin basic protein (MBP) (5 mg/ml)) and added to 96 well plates along with 5 μl of various dilutions of the test compound in DMSO (up to 10%). The reaction is allowed to proceed for 50 minutes before being stopped with an excess of ortho-phosphoric acid (30 μl at 2%).
γ^33P-ATP which remains unincorporated into the myelin basic protein is separated from phosphorylated MBP on a Millipore MAPH filter plate. The wells of the MAPH plate are wetted with 0.5% orthophosphoric acid, and then the results of the reaction are filtered with a Millipore vacuum filtration unit through the wells. Following filtration, the residue is washed twice with 200 μl of 0.5% orthophosphoric acid. Once the filters have dried, 25 μl of Microscint 20 scintillant is added, and then counted on a Packard Topcount for 30 seconds.

p38 MAP kinase, sequence (Q16539 whole entry): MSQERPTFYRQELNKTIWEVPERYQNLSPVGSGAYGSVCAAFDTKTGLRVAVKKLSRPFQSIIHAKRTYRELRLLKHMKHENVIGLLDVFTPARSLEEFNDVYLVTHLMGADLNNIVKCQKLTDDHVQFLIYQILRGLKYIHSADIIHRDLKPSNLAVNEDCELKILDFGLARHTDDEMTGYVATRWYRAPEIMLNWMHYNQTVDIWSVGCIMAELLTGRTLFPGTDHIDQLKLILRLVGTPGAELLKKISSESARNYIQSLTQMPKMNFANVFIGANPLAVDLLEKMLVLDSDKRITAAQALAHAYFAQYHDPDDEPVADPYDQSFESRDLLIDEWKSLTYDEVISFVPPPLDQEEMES

IC50 [µM] | Structure (SMILES)
< 20 | O=C(Nc1ccc(Cl)c(COc2cccnc2)c1)c1cccc(Cl)c1 [Compound 70, 3-Chloro-N-[4-chloro-3-(pyridin-3-yloxymethyl)-phenyl]-benzamide]
< 200 | O=C1c2ccccc2C(O)N1c1ccc(Cl)c(COc2cccnc2)c1 (stereo not shown) [Compound 73]
< 20 | O=C(Nc1ccc(F)c(COc2cccnc2)c1)c1cncc(N2CCOCC2)n1 [Compound 75, 6-Morpholin-4-yl-pyrazine-2-carboxylic acid [4-fluoro-3-(pyridin-3-yloxymethyl)-phenyl]-amide]
< 2 | O=C(Nc1ccc(Cl)c(COc2ccc(NCc3ccccc3)nc2)c1)c1cc(F)cc(N2CCOCC2)c1 [Compound 77, N-[3-(6-Benzylamino-pyridin-3-yloxymethyl)-4-chloro-phenyl]-3-fluoro-5-morpholin-4-yl-benzamide]
< 20 | CC(C)(C)c1ccccc1NC(=O)Nc1ccc(F)c(COc2cccnc2)c1 [Compound 78, 1-(2-tert-Butyl-phenyl)-3-[4-fluoro-3-(pyridin-3-yloxymethyl)-phenyl]-urea]
< 1000 | O=C1c2ccccc2CN1c1ccc(F)c(COc2cccnc2)c1 [Compound 80]
< 20 | CC(C)c1nnc(NC(=O)Nc2ccc(F)c(COc3cccnc3)c2)s1 [Compound 81, 1-[4-Fluoro-3-(pyridin-3-yloxymethyl)-phenyl]-3-(5-isopropyl-[1,3,4]thiadiazol-2-yl)-urea]

Structure (SMILES) | IC50 [µM]
O=C(Nc1ccc(Cl)c(COc2cccnc2)c1)Oc1ccccc1 [Compound 79, [4-Chloro-3-(pyridin-3-yloxymethyl)-phenyl]-carbamic acid phenyl ester] | < 20

Same assay, conditions: Table 2; MKK6-activated p38, MBP substrate, 50 minutes

Structure (SMILES) | IC50 [µM]
Nc1cccc(COc2cncc(Cl)n2)c1 [Compound 85] | < 1000
Nc1cnc(OCc2ccccc2)cn1 [Compound 86] | < 1000
Clc1cnc(OCc2c(Cl)cccc2Cl)cn1 [Compound 88] | < 1000
CC(C)(C)OC(=O)Nc1ccc(Cl)c(COc2cnccn2)c1 [Compound 89] | < 1000
Nc1nccnc1OCc1c(Cl)cccc1Cl [Compound 90] | < 1000
Nc1ccc(Cl)c(COc2cnccn2)c1 [Compound 91] | < 1000
O=C(Nc1ccc(F)c(COc2cnccn2)c1)Oc1cccc(C(F)(F)F)c1 [Compound 99, [4-Fluoro-3-(pyrazin-2-yloxymethyl)-phenyl]-carbamic acid 3-trifluoromethyl-phenyl ester] | < 20
COc1cc(C(=O)Nc2ccc(F)c(COc3cnccn3)c2)nc(Cl)n1 [Compound 105, 2-Chloro-6-methoxy-pyrimidine-4-carboxylic acid [4-fluoro-3-(pyrazin-2-yloxymethyl)-phenyl]-amide] | < 1000
O=C(Nc1ccccc1)Oc1cccc(COc2cnccn2)c1 [Compound 107, Phenyl-carbamic acid 3-(pyrazin-2-yloxymethyl)-phenyl ester] | < 200
c1ccc(CNc2cccc(COc3cnccn3)c2)cc1 [Compound 108] | < 1000
CCNC(=O)c1cnc(OCc2c(Cl)cccc2Cl)cn1 [Compound 111, 5-(2,6-Dichloro-benzyloxy)-pyrazine-2-carboxylic acid ethylamide] | < 1000
O=C(NCCO)c1cnc(OCc2c(Cl)cccc2Cl)cn1 [Compound 112, 5-(2,6-Dichloro-benzyloxy)-pyrazine-2-carboxylic acid (2-hydroxy-ethyl)-amide] | < 1000
Cc1cc(C)c2nc(NC(=O)Nc3ccc(F)c(COc4cnccn4)c3)sc2c1 [Compound 116, 1-(4,6-Dimethyl-benzothiazol-2-yl)-3-[4-fluoro-3-(pyrazin-2-yloxymethyl)-phenyl]-urea] | < 1000

Results, then the compound that gave them:

IC50 [µM] | Structure (SMILES)
< 1000 | Nc1nccnc1OCc1cccc2ccccc12 [Compound 82]
< 1000 | Nc1ncc(OCc2cccc3ccccc23)nc1Br [Compound 83]
< 1000 | Nc1ncc(OCc2ccccc2)nc1Br [Compound 84]
< 200 | Clc1cccc(Cl)c1COc1cnccn1 [Compound 87]
< 20 | O=C(Nc1ccc(Cl)c(COc2cnccn2)c1)c1ccccc1 [Compound 92, N-[4-Chloro-3-(pyrazin-2-yloxymethyl)-phenyl]-benzamide]
< 2 | O=C(Nc1ccc(Cl)c(COc2cnccn2)c1)c1ccnc(N2CCOCC2)c1 [Compound 93, N-[4-Chloro-3-(pyrazin-2-yloxymethyl)-phenyl]-2-morpholin-4-yl-isonicotinamide]
< 20 | CC(C)(C)c1cc(NC(=O)Nc2ccc(Cl)c(COc3cnccn3)c2)[nH]n1 [Compound 95]
< 2 | O=C(Nc1ccc(F)c(COc2cnccn2)c1)Nc1nnc(CC2CC2)s1 [Compound 96, 1-(5-Cyclopropylmethyl-[1,3,4]thiadiazol-2-yl)-3-[4-fluoro-3-(pyrazin-2-yloxymethyl)-phenyl]-urea]
< 20 | CC(C)c1nnc(NC(=O)Nc2ccc(F)c(COc3cnccn3)c2)s1 [Compound 97, 1-[4-Fluoro-3-(pyrazin-2-yloxymethyl)-phenyl]-3-(5-isopropyl-[1,3,4]thiadiazol-2-yl)-urea]
< 2 | O=C(Nc1ccc(F)c(COc2cnccn2)c1)c1cccc(S(=O)(=O)N2CCOCC2)c1 [Compound 98, N-[4-Fluoro-3-(pyrazin-2-yloxymethyl)-phenyl]-3-(morpholine-4-sulfonyl)-benzamide]
< 20 | CC(C)(C)c1csc(NC(=O)Nc2ccc(F)c(COc3cnccn3)c2)n1 [Compound 100, 1-(4-tert-Butyl-thiazol-2-yl)-3-[4-fluoro-3-(pyrazin-2-yloxymethyl)-phenyl]-urea]
< 20 | CC(C)(C)c1ccc(C(=O)Nc2ccc(F)c(COc3cnccn3)c2)cc1 [Compound 101, 4-tert-Butyl-N-[4-fluoro-3-(pyrazin-2-yloxymethyl)-phenyl]-benzamide]
< 2 | O=C(Nc1ccc(F)c(COc2cnccn2)c1)c1cccc(Oc2ccccc2)c1 [Compound 102, N-[4-Fluoro-3-(pyrazin-2-yloxymethyl)-phenyl]-3-phenoxy-benzamide]
< 2 | CC(C)(C)c1cccc(C(=O)Nc2ccc(F)c(COc3cnccn3)c2)c1 [Compound 103, 3-tert-Butyl-N-[4-fluoro-3-(pyrazin-2-yloxymethyl)-phenyl]-benzamide]
< 2 | CC(C)(C)c1cc(NC(=O)Nc2ccc(F)c(COc3cnccn3)c2)n(-c2ccccc2)n1 [Compound 106, 1-(5-tert-Butyl-2-phenyl-2H-pyrazol-3-yl)-3-[4-fluoro-3-(pyrazin-2-yloxymethyl)-phenyl]-urea]
< 200 | c1cc(COc2cnccn2)cc(Nc2nc3ccccc3o2)c1 [Compound 109]
< 200 | Nc1cnc(OCc2c(Cl)cccc2Cl)cn1 [Compound 110]
< 20 | CC(C)(CO)NC(=O)c1cnc(OCc2c(Cl)cccc2Cl)cn1 [Compound 113, 5-(2,6-Dichloro-benzyloxy)-pyrazine-2-carboxylic acid (2-hydroxy-1,1-dimethyl-ethyl)-amide]
< 200 | CCN(CC)C(=O)Nc1cnc(OCc2c(Cl)cccc2Cl)cn1 [Compound 114]
< 200 | O=C(Nc1ccc(F)c(COc2cnccn2)c1)Nc1nnc(-c2ccccc2)s1 [Compound 115, 1-[4-Fluoro-3-(pyrazin-2-yloxymethyl)-phenyl]-3-(5-phenyl-[1,3,4]thiadiazol-2-yl)-urea]
< 2 | O=C(Nc1ccc(F)c(COc2cnccn2)c1)Nc1cc(-c2ccccc2)[nH]n1 [Compound 118, 1-[4-Fluoro-3-(pyrazin-2-yloxymethyl)-phenyl]-3-(5-phenyl-1H-pyrazol-3-yl)-urea]
< 20 | O=C(Nc1ccc(F)c(COc2cnccn2)c1)Nc1n[nH]cc1-c1ccccc1 [Compound 119, 1-[4-Fluoro-3-(pyrazin-2-yloxymethyl)-phenyl]-3-(4-phenyl-1H-pyrazol-3-yl)-urea]
< 2 | O=C(Nc1ccc(F)c(COc2cnccn2)c1)Nc1nnc(C2CCCO2)s1 (stereo not shown) [Compound 120, 1-[4-Fluoro-3-(pyrazin-2-yloxymethyl)-phenyl]-3-[5-(tetrahydro-furan-2-yl)-[1,3,4]thiadiazol-2-yl]-urea]
< 2 | O=C(Nc1ccc(F)c(COc2cnccn2)c1)Nc1nnc(Cc2ccccc2)s1 [Compound 121, 1-(5-Benzyl-[1,3,4]thiadiazol-2-yl)-3-[4-fluoro-3-(pyrazin-2-yloxymethyl)-phenyl]-urea]
< 200 | Cc1noc(-c2ccccc2)c1C(=O)Nc1ccc(F)c(COc2cnccn2)c1 [Compound 122, 3-Methyl-5-phenyl-isoxazole-4-carboxylic acid [4-fluoro-3-(pyrazin-2-yloxymethyl)-phenyl]-amide]
< 20 | O=C(Nc1ccc(F)c(COc2cnccn2)c1)Nc1nc(-c2ccccc2)cs1 [Compound 123, 1-[4-Fluoro-3-(pyrazin-2-yloxymethyl)-phenyl]-3-(4-phenyl-thiazol-2-yl)-urea]
< 200 | Cc1nc(-c2cc(C(=O)Nc3ccc(F)c(COc4cnccn4)c3)no2)cs1 [Compound 124, 5-(2-Methyl-thiazol-4-yl)-isoxazole-3-carboxylic acid [4-fluoro-3-(pyrazin-2-yloxymethyl)-phenyl]-amide]
< 2 | CC(C)(C)c1cc(NC(=O)Nc2ccc(F)c(COc3cnccn3)c2)n(-c2ccc(F)cc2F)n1 [Compound 125, 1-[5-tert-Butyl-2-(2,4-difluoro-phenyl)-2H-pyrazol-3-yl]-3-[4-fluoro-3-(pyrazin-2-yloxymethyl)-phenyl]-urea]
